Key:
[1] = test system: Drosophila melanogaster; assay: Insecticidal activity against first-instar larval stage of Drosophila melanogaster fed with artificial diet containing compound assessed as mortality at 8.3 umol/ml measured after 144 hr; format: functional
[2] = test system: Drosophila melanogaster; assay: Insecticidal activity against first-instar larval stage of Drosophila melanogaster fed with artificial diet containing compound assessed as mortality at 37.6 umol/ml measured after 96 hr; format: functional
[3] = test system: Drosophila melanogaster; assay: Insecticidal activity against first-instar larval stage of Drosophila melanogaster fed with artificial diet containing compound assessed as mortality at 37.6 umol/ml measured after 120 hr; format: functional
[4] = test system: Drosophila melanogaster; assay: Insecticidal activity against first-instar larval stage of Drosophila melanogaster fed with artificial diet containing compound assessed as mortality at 18.3 umol/ml measured after 144 hr; format: functional
[5] = test system: Drosophila melanogaster; assay: Insecticidal activity against first-instar larval stage of Drosophila melanogaster fed with artificial diet containing compound assessed as mortality at 8.3 umol/ml measured after 120 hr; format: functional
[6] = test system: Drosophila melanogaster; assay: Insecticidal activity against first-instar larval stage of Drosophila melanogaster fed with artificial diet containing compound assessed as mortality at 18.3 umol/ml measured after 120 hr; format: functional
[7] = test system: Drosophila melanogaster; assay: Insecticidal activity against first-instar larval stage of Drosophila melanogaster fed with artificial diet containing compound assessed as mortality at 37.6 umol/ml measured after 24 hr (reference value: 0%); format: functional
[8] = test system: Drosophila melanogaster; assay: Insecticidal activity against first-instar larval stage of Drosophila melanogaster fed with artificial diet containing compound assessed as mortality at 37.6 umol/ml measured after 72 hr (reference value: 3.33 +/-0.33%); format: functional
[9] = test system: Drosophila melanogaster; assay: Insecticidal activity against first-instar larval stage of Drosophila melanogaster fed with artificial diet containing compound assessed as mortality at 18.3 umol/ml measured after 48 hr (reference value: 0%); format: functional
[10] = test system: Drosophila melanogaster; assay: Insecticidal activity against first-instar larval stage of Drosophila melanogaster fed with artificial diet containing compound assessed as mortality at 8.3 umol/ml measured after 72 hr (reference value: 0%); format: functional
[11] = test system: Drosophila melanogaster; assay: Insecticidal activity against first-instar larval stage of Drosophila melanogaster fed with artificial diet containing compound assessed as mortality at 18.3 umol/ml measured after 96 hr; format: functional
[12] = test system: Drosophila melanogaster; assay: Insecticidal activity against first-instar larval stage of Drosophila melanogaster fed with artificial diet containing compound assessed as mortality at 37.6 umol/ml measured after 144 hr; format: functional
[13] = test system: Drosophila melanogaster; assay: Insecticidal activity against first-instar larval stage of Drosophila melanogaster fed with artificial diet containing compound assessed as mortality at 37.6 umol/ml measured after 48 hr (reference value: 0%); format: functional
[14] = test system: Drosophila melanogaster; assay: Insecticidal activity against first-instar larval stage of Drosophila melanogaster fed with artificial diet containing compound assessed as mortality at 8.3 umol/ml measured after 48 hr (reference value: 0%); format: functional
[15] = test system: Drosophila melanogaster; assay: Insecticidal activity against first-instar larval stage of Drosophila melanogaster fed with artificial diet containing compound assessed as mortality at 18.3 umol/ml measured after 72 hr (reference value: 0%); format: functional
[16] = test system: Drosophila melanogaster; assay: Insecticidal activity against first-instar larval stage of Drosophila melanogaster fed with artificial diet containing compound assessed as mortality at 18.3 umol/ml measured after 24 hr (reference value: 0%); format: functional
[17] = test system: Drosophila melanogaster; assay: Insecticidal activity against first-instar larval stage of Drosophila melanogaster fed with artificial diet containing compound assessed as mortality at 8.3 umol/ml measured after 24 hr (reference value: 0%); format: functional
[18] = test system: Drosophila melanogaster; assay: Insecticidal activity against first-instar larval stage of Drosophila melanogaster fed with artificial diet containing compound assessed as mortality at 8.3 umol/ml measured after 96 hr; format: functional
[19] = test system: Spodoptera frugiperda; assay: Insecticidal activity against Spodoptera frugiperda (fall armyworm) larvae assessed as mortality at 25 ppm; format: functional
[20] = biological target: Acetylcholinesterase (Spodoptera litura) (UniProt C5IU80); assay: Inhibition of acetylcholinesterase in Spodoptera frugiperda (fall armyworm) at 15 ppm
[21] = test system: Drosophila melanogaster; assay: Insecticidal activity against first-instar larval stage of Drosophila melanogaster fed with artificial diet containing compound assessed as mortality measured after 24 hr; format: functional; conditions: read-out: LD50 (the source's name)
[22] = test system: Drosophila melanogaster; assay: Insecticidal activity against first-instar larval stage of Drosophila melanogaster fed with artificial diet containing compound assessed as mortality measured after 72 hr; format: functional; conditions: read-out: LD50 (the source's name)

Sequence of Acetylcholinesterase (Spodoptera litura) (C5IU80 as listed by the source): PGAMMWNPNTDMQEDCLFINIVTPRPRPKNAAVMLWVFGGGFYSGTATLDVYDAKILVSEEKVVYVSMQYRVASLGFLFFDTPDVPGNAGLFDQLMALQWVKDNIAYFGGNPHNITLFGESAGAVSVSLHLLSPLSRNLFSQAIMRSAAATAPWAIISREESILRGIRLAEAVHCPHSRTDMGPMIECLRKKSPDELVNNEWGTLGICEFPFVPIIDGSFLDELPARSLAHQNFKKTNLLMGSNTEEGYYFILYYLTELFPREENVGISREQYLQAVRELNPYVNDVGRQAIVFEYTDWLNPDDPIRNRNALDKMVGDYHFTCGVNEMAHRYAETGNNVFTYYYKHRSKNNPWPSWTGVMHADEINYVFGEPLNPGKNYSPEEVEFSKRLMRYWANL

Structure (SMILES)	mortality [1]	mortality [2]	mortality [3]	mortality [4]	mortality [5]	mortality [6]	mortality [7]	mortality [8]	mortality [9]	mortality [10]	mortality [11]	mortality [12]	mortality [13]	mortality [14]	mortality [15]	mortality [16]	mortality [17]	mortality [18]	other results
CC1=C2C[C@H](C(C)(O)CO)CC[C@@]2(C)CCC1=O (stereo not given in full)	10%	23%	23%	23%	10%	23%	20%	20%	10%	10%	23%	23%	20%	10%	0%	10%	10%	10%	–
CC(=O)OC[C@H]1C[C@@H](OC(C)=O)[C@@H](OC(C)=O)[C@@]2(C)[C@H](OC(=O)c3ccccc3)[C@@H](OC(C)=O)[C@@H]3[C@H](OC(C)=O)[C@]12OC3(C)C	–	–	–	–	–	–	–	–	–	–	–	–	–	–	–	–	–	–	mortality at 25 ppm [19]: 100%
CC(=O)OC[C@H]1C[C@@H](OC(C)=O)[C@@H](OC(C)=O)[C@@]2(C)[C@H](OC(=O)c3ccco3)[C@@H](OC(C)=O)[C@@H]3[C@H](OC(C)=O)[C@]12OC3(C)C	–	–	–	–	–	–	–	–	–	–	–	–	–	–	–	–	–	–	inhibition [20]: 100%; mortality at 25 ppm [19]: 100%
C=C(C)[C@@H]1CC[C@@]2(C)CCC(O)C(C)=C2C1 (mixture of isomers)	–	–	–	–	–	–	90%	100%	86.7%	100%	–	–	96%	70%	100%	70%	50%	–	LC50 [21]: 8.78 mM
C=C(C)[C@@H]1CC[C@@]2(C)CC[C@@H](O)C(C)=C2C1 [3ALPHA-HYDROXY-CYPERONE]	0%	10%	10%	6.6%	0%	3.3%	0%	6.7%	0%	0%	3.3%	10%	6.7%	0%	3.3%	0%	0%	0%	–
C=C(C)[C@@H]1CC[C@@]2(C)CC[C@H](O)C(C)=C2C1 [3BETA-HYDROXY-CYPERONE]	–	–	–	–	–	–	80%	100%	73.3%	50%	–	–	96%	50%	73.3%	36.7%	20%	–	LC50 [22]: 9.36 mM
C=C(C)[C@@H]1CC[C@]2(C)CCC(=O)C[C@]2(O)C1 [5-HYDROXY-14-NOREUDESM-11-EN-3-ONE]	16.6%	23.3%	23.3%	20%	16.6%	20%	13%	16.6%	6.7%	6.7%	20%	23.3%	13.3%	6.7%	13.3%	3.3%	0%	6.6%	–
C=C(C)[C@@H]1CC[C@]2(C)CCC(=O)[C@H](C)[C@]2(O)C1 [5ALPHA-HYDROXY-14-EUDESM-11-EN-3-ONE]	23.3%	36.6%	36.6%	26.7%	16.7%	20%	0%	33.3%	0%	0%	20%	40%	0%	0%	13.3%	0%	0%	16.7%	LC50 [22]: 42.6 mM
C=C(C)[C@@H]1CC[C@]2(C)CCC(=O)C(C)=C2C1 [(-)-10-EPI-ALPHA-CYPERONE]	–	–	–	–	–	–	0%	0.11%	0%	0%	–	–	0.11%	0%	0%	0%	0%	–	–
C=C(C)[C@@H]1CC[C@@]2(C)CCC(=O)C(C)=C2C1 [ALPHA-CYPERONE]	–	–	–	–	–	–	96.7%	100%	100%	100%	–	–	100%	76.6%	100%	83%	70%	–	LC50 [21]: 4.99 mM
